The subject of experiment [1] is A2780cisR cells. Briefly: Cellular Pt accumulation (accumulation ratio) in A2780cisR cells. The conditions noted are these: 4 h CT, 10 μM. The class given is cell-based, human. The protocol: A2780 and A2780cisR cells were seeded in 10 mm Petri dishes and challenged with complexes under investigation (10 μM) in a complete medium for 4 h. At the end of the exposure, cells were washed three times with PBS, detached from Petri dishes using 0.05% trypsin 1x + 2% EDTA (HyClone, Thermo Fisher), and harvested in a completely fresh medium. An automatic cell counting device (Countess®, Life Technologies) was used to measure the number and mean diameter of each cell necessary to calculate the mean cellular (spherical) volume.
For the analysis of Pt accumulation, cells were transferred to a borosilicate glass tube and centrifuged at 1100 rpm for 5 min at room temperature. […]
The determination of the platinum content was performed by ICP-MS (Thermo Optek X Series 2). […] The instrument settings were optimized to produce the highest platinum sensitivity, and the most abundant isotopes of Pt and In (used as an internal standard) were quantified at m/z 195 and 115, respectively.
The quantity of Pt found in cells and normalized on cell number (cellular Pt accumulation) was expressed as ng of Pt per 10^6 cells. The mean cellular volume, calculated from the actual mean cell diameter measured for each sample (about 12 μm), was used to obtain the volume of 10^6 cells and, finally, the intracellular Pt concentration. […]

The test system of experiment [2] is A2780 cells. Briefly: DNA platination in A2780 cells. The class given is cell-based, human. The conditions noted are these: A2780, 24 h CT, 10 μM. The method, then:
Cells were seeded in 175 cm^2 flasks and treated for 24 h with the complexes under investigation (10 μM) as described previously. From this sample, about 5 × 10^6 cells were taken out for the cellular accumulation analysis (see the previous section), whereas about 20 × 10^6 cells were taken out for the DNA platination analysis.
For DNA platination analysis, cells were transferred to a plastic tube and centrifuged at 1100 rpm for 5 min at room temperature. […]
After washing, DNA was eluted in 300 μL of elution buffer. […] Absorbance at 260 nm (A260, relative to nucleic acids) and 280 nm (A280, relative to proteins) was recorded from triplicate wells.
For each well, A260 and A280 were corrected by subtracting the background, and then the purity of the samples was verified by means of the A260 to A280 ratio. After subtracting the mean A260 from the blank wells, the DNA concentration was calculated from the corrected A260 using a calibration curve obtained with the calf thymus DNA. Under these conditions, an absorbance of 1 unit at 260 nm corresponds to 100 μg of DNA per mL. The remaining amount of DNA elution buffer was transferred to a borosilicate glass tube, and its precise volume was determined by weight to calculate the total amount of DNA and then stored at −20°C until mineralization. […]

Each structure is given as a SMILES string.

Consider `N.N.[Cl][Pt][Cl]` [Cisplatin, (SP-4-2)-diamminedichloridoplatinum(II)], for which the “Pt accumulation (AR) in A2780cisR compared with A2780” value in experiment [1] is on record as “much lower amounts of Pt than A2780”.
As for `CC(=O)[O][Pt]([OH])([Cl])[Cl].N.N` [Complex 2, (OC-6-44)-acetatodiamminedichloridohydroxidoplatinum(IV)], the DNA platination result in experiment [2] was “the highest among Complexes 1–3 and was similar to that of cisplatin”.

Source of the values: article PMC9822769, “The Strange Case: The Unsymmetric Cisplatin-Based Pt(IV) Prodrug [Pt(CH3COO)Cl2(NH3)2(OH)] Exhibits Higher Cytotoxic Activity with respect to Its Symmetric Congeners due to Carrier-Mediated Cellular Uptake” (Bioinorganic Chemistry and Applications, 2022).
